Reference: US10479764B2, “2-methylene-(22E)-25-hexanoyl-24-oxo-26,27-cyclo-22-dehydro-19-nor-vitamin D analogs” (WISCONSIN ALUMNI RESEARCH FOUNDATION, priority 2011, dated 2019)
Where two headings read alike, the source gives them in different places.

Key:
[1] = target: T1, full-length recombinant rat vitamin D receptor (Rattus norvegicus, UniProt P13053); experiment: Vitamin D receptor binding, competition with [3H]-1,25(OH)2D3; conditions: full-length recombinant rat VDR; FIG. 1
T1 construct: Full-length recombinant rat receptor was expressed in E. coli; histidine tag (C); made in house; host or cells: E. coli BL21 (DE3) Codon Plus RIL
T1 sequence (P13053 1-423): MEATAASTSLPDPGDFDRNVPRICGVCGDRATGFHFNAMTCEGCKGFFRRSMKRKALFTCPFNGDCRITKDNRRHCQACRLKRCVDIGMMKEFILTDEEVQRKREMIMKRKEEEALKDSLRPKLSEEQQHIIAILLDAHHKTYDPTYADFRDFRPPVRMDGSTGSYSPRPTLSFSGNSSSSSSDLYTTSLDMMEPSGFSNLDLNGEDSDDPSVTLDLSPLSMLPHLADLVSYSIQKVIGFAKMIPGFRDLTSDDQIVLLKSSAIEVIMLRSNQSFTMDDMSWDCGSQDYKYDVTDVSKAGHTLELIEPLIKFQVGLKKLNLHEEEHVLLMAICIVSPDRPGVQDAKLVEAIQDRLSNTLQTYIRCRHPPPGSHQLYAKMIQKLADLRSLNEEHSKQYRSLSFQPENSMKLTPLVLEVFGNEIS
Description: Vitamin D Receptor Binding
Full-length recombinant rat receptor was expressed in E. coli BL21 (DE3) Codon Plus RIL cells and purified to homogeneity using two different column chromatography systems. The first system was a nickel affinity resin that utilizes the C-terminal histidine tag on this protein. The protein that was eluted from this resin was further purified using ion exchange chromatography (S-Sepharose Fast Flow). Aliquots of the purified protein were quick frozen in liquid nitrogen and stored at −80° C. until use. For use in binding assays, the protein was diluted in TEDK50 (50 mM Tris, 1.5 mM EDTA, pH7.4, 5 mM DTT, 150 mM KCl) with 0.1% Chaps detergent. The receptor protein and ligand concentration were optimized such that no more than 20% of the added radiolabeled ligand was bound to the receptor.
The following day, 100 mcl of hydroxylapatite slurry (50%) was added to each tube and mixed at 10-minute intervals for 30 minutes. The hydroxylapaptite was collected by centrifugation and then washed three times with Tris-EDTA buffer (50 mM Tris, 1.5 mM EDTA, pH 7.4) containing 0.5% Titron X-100. After the final wash, the pellets were transferred to scintillation vials containing 4 ml of Biosafe II scintillation cocktail, mixed and placed in a scintillation counter. Total binding was determined from the tubes containing only radiolabeled ligand.

HL-60 cells = experiment: HL-60 differentiation (nitro blue tetrazolium reduction); type: cell-based, human; conditions: differentiation of HL-60 cells into monocytes, FIG. 2, read-out: EC50, HL-60 cell differentiation
Procedure: The study drugs were dissolved in ethanol and the concentrations determined using UV spectrophotometry. Serial dilutions were prepared so that a range of drug concentrations could be tested without changing the final concentration of ethanol (≤0.2%) present in the cell cultures.
Human promyelocytic leukemia (HL60) cells were grown in RPMI-1640 medium containing 10% fetal bovine serum. The cells were incubated at 37° C. in the presence of 5% CO2.
HL60 cells were plated at 1.2×10^5 cells/ml. Eighteen hours after plating, cells in duplicate were treated with drug. Four days later, the cells were harvested and a nitro blue tetrazolium reduction assay was performed (Collins et al., 1979; J. Exp. Med. 149:969-974). The percentage of differentiated cells was determined by counting a total of 200 cells and recording the number that contained intracellular black-blue formazan deposits. Verification of differentiation to monocytic cells was determined by measuring phagocytic activity (data not shown).

[2] = tested on: 24-hydroxylase (24Ohase) gene promoter in ROS 17/2.8 (bone) cells; experiment: In vitro transcription assay (24-hydroxylase promoter luciferase reporter); type: cell-based; conditions: ROS 17/2.8 cells, FIG. 3, read-out: EC50, transcriptional activity in bone cells (24-hydroxylase gene)
Procedure: In Vitro Transcription Assay
Transcription activity was measured in ROS 17/2.8 (bone) cells that were stably transfected with a 24-hydroxylase (24Ohase) gene promoter upstream of a luciferase reporter gene (Arbour et al., 1998). Cells were given a range of doses. Sixteen hours after dosing the cells were harvested and luciferase activities were measured using a luminometer.
RLU=relative luciferase units.

[3] = Bone calcium mobilization (serum calcium) in vitamin D-deficient rats; type: in vivo, rat
Procedure: (§1) Intestinal Calcium Transport and Bone Calcium Mobilization
(§2) Male, weanling Sprague-Dawley rats were placed on Diet 11 (0.47% Ca) diet+AEK oil for one week followed by Diet 11 (0.02% Ca)+AEK oil for 3 weeks. The rats were then switched to a diet containing 0.47% Ca for one week followed by two weeks on a diet containing 0.02% Ca. Dose administration began during the last week on 0.02% calcium diet. Four consecutive ip doses were given approximately 24 hours apart. Twenty-four hours after the last dose, blood was collected from the severed neck and the concentration of serum calcium determined as a measure of bone calcium mobilization. The first 10 cm of the intestine was also collected for intestinal calcium transport analysis using the everted gut sac method.

[4] = Intestinal calcium transport (everted gut sac) in vitamin D-deficient rats; type: in vivo, rat
Procedure: as §1, §2

## C=C1[C@H](O)CC(=C/C=C2\CCC[C@]3(C)[C@@H]([C@H](C)/C=C/C(=O)C4(C(=O)CCCCC)CC4)CC[C@@H]23)C[C@H]1O [UW-05, 2-methylene-(22E)-25-hexanoyl-24-oxo-26,27-cyclo-22-dehydro-19-nor-1α-hydroxyvitamin D3]
[1]
  Ki: 0.3 nM
HL-60 cells; Homo sapiens
  EC50: 4 nM
[2]
  EC50: 0.3 nM
[3]; 780 pmol/day, FIG. 4B, second group of animals
  bone calcium mobilization at 780 pmol/day: no substantial effect was seen
[3]; 4 consecutive days, ip, FIG. 4A, first group of animals
  dose giving about the same mobilization of bone calcium as 1,25(OH)2D3 at 260 pmol/day: 780 pmol/day
[3]; 4 consecutive days, ip, FIG. 4B, second group of animals
  dose giving about the same mobilization of bone calcium as native hormone at 780 pmol/day: 7020 pmol/day
[3]; FIGS. 4A and 4B
  bone calcium mobilization activity, times less than 1,25(OH)2D3: about 10 times
[4]; 87 pmol/day for 4 consecutive days, FIG. 5A
  intestinal calcium transport activity at 87 pmol/day: did not result in substantial activity
[4]; 260 pmol/day and 780 pmol/day, 4 consecutive days, FIG. 5A
  intestinal calcium transport activity at 260 pmol/day and then 780 pmol/day: a significant increase in effect was seen
[4]; in vivo, dose dependent, FIGS. 5A and 5B
  intestinal calcium transport activity compared with 1,25(OH)2D3: approximately equal to 1,25-dihydroxyvitamin D3

## C=C1/C(=C\C=C2/CCC[C@]3(C)[C@@H]([C@H](C)CCCC(C)(C)O)CC[C@@H]23)C[C@@H](O)C[C@@H]1O [1α,25-dihydroxyvitamin D3, reference compound]
HL-60 cells
  EC50: 2 nM
[2]
  EC50: 0.3 nM
[3]; vitamin D-deficient rats, low calcium diet (0.02%), all dosages, FIGS. 4A and 4B
  serum calcium levels (bone calcium mobilization): increased serum calcium levels at all dosages
